# Assay results published in patent US20160122821A1, “GENETIC MARKERS OF ANTIPSYCHOTIC RESPONSE” (SUREGENE, LLC, priority 2013, published 2016).
# System: Caucasian patients with schizophrenia (CATIE)
# Test: Genetic association (linear regression, additive model) of SNP alleles with MMRM-modelled change in PANSS Total Score under antipsychotic treatment, CATIE trial
# Type: in vivo, human
smiles,measurement,setting,value
"Cc1cc2c(s1)Nc1ccccc1N=C2N1CCN(C)CC1 [Olanzapine, olanzapine]",Beta (PANSS),ADAMTS9-AS2 rs17071651 allele C,−3.03 PANSS
same,Beta (PANSS),AGAP1 rs4663220 allele T,−3.07 PANSS
same,Beta (PANSS),ANK3 rs2893823 allele A,−4.47 PANSS
same,Beta (PANSS),ANK3 rs10821660 allele G,−4.45 PANSS
same,Beta (PANSS),APCDD1 rs1045584 allele G,−3.41 PANSS
same,Beta (PANSS),ARHGAP31 rs751607 allele A,−4.30 PANSS
same,Beta (PANSS),ARVCF rs2238794 allele C,−3.11 PANSS
same,Beta (PANSS),ATP10A rs2291351 allele A,−4.99 PANSS
same,Beta (PANSS),BIK rs5996274 allele A,−4.94 PANSS
same,Beta (PANSS),CA10 rs741682 allele A,−5.58 PANSS
same,Beta (PANSS),CACNA1B rs12352971 allele G,−4.21 PANSS
same,Beta (PANSS),CACNG4 rs7219571 allele A,−5.84 PANSS
same,Beta (PANSS),CAMK2D rs13113625 allele C,−3.68 PANSS
same,Beta (PANSS),CDH13 rs3743621 allele C,−5.54 PANSS
same,Beta (PANSS),CLIC5 rs35822882 allele G,−14.90 PANSS
same,Beta (PANSS),CNTN4 rs1554561 allele T,−4.50 PANSS
same,Beta (PANSS),CNTN4 rs4685501 allele T,−4.63 PANSS
same,Beta (PANSS),CPNE5 rs12194367 allele T,−3.14 PANSS
same,Beta (PANSS),CSMD1 rs2724972 allele G,−4.69 PANSS
same,Beta (PANSS),CSMD1 rs7815861 allele C,−5.06 PANSS
same,Beta (PANSS),DLGAP1 rs498419 allele A,−3.07 PANSS
same,Beta (PANSS),DLGAP1 rs561434 allele A,−4.43 PANSS
same,Beta (PANSS),EHD4 rs1048166 allele C,−3.04 PANSS
same,Beta (PANSS),EHD4 rs1048175 allele C,−3.04 PANSS
same,Beta (PANSS),EML1 rs34198557 allele C,−4.01 PANSS
same,Beta (PANSS),ERBB4 rs7565257 allele A,−3.44 PANSS
same,Beta (PANSS),ERG rs9981408 allele G,−3.15 PANSS
same,Beta (PANSS),EXOC2 rs9405889 allele C,−3.21 PANSS
same,Beta (PANSS),FAM170A rs2162856 allele A,−3.06 PANSS
same,Beta (PANSS),FAM173B rs12652786 allele C,−3.39 PANSS
same,Beta (PANSS),FBN3 rs2287937 allele C,−5.34 PANSS
same,Beta (PANSS),FGF14 rs2390674 allele A,−4.22 PANSS
same,Beta (PANSS),FHIT rs971866 allele A,−5.07 PANSS
same,Beta (PANSS),FMNL2 rs4664113 allele C,−4.25 PANSS
same,Beta (PANSS),FSTL5 rs13127909 allele C,−4.60 PANSS
same,Beta (PANSS),GAN rs1345895 allele A,−3.53 PANSS
same,Beta (PANSS),GAS7 rs9904524 allele G,−4.96 PANSS
same,Beta (PANSS),GPC6 rs9301876 allele A,−4.68 PANSS
same,Beta (PANSS),GRM8 rs17865066 allele A,−7.97 PANSS
same,Beta (PANSS),GRM8 rs17865434 allele C,−7.97 PANSS
same,Beta (PANSS),HTR1B rs11568817 allele G,−3.16 PANSS
same,Beta (PANSS),IFT74 rs4463511 allele C,−3.77 PANSS
same,Beta (PANSS),IL1RAP rs2361835 allele A,−3.93 PANSS
same,Beta (PANSS),IL1RAP rs7642607 allele A,−3.93 PANSS
same,Beta (PANSS),IL1RAP rs7642797 allele A,−3.93 PANSS
same,Beta (PANSS),IL15 rs3806798 allele A,−4.33 PANSS
same,Beta (PANSS),ITPR1 rs11717244 allele C,−3.53 PANSS
same,Beta (PANSS),JPH2 rs2064381 allele A,−3.06 PANSS
same,Beta (PANSS),KAZN rs12130605 allele C,−3.66 PANSS
same,Beta (PANSS),KCND2 rs718805 allele A,−5.26 PANSS
same,Beta (PANSS),KCND2 rs10953911 allele G,−5.26 PANSS
same,Beta (PANSS),KCND2 rs11765060 allele C,−5.30 PANSS
same,Beta (PANSS),KCNH1 rs4282878 allele C,−3.08 PANSS
same,Beta (PANSS),KDM4C rs35389625 allele C,−11.20 PANSS
same,Beta (PANSS),KITLG rs995029 allele C,−7.22 PANSS
same,Beta (PANSS),LDB2 rs872478 allele C,−3.53 PANSS
same,Beta (PANSS),LRP1B rs4591293 allele A,−3.04 PANSS
same,Beta (PANSS),MACROD2 rs461651 allele A,−3.59 PANSS
same,Beta (PANSS),MACROD2 rs6079429 allele A,−4.72 PANSS
same,Beta (PANSS),MAGI2 rs848813 allele C,−4.34 PANSS
same,Beta (PANSS),MAGI2 rs12705833 allele G,−2.87 PANSS
same,Beta (PANSS),MCPH1 rs930557 allele C,−3.78 PANSS
same,Beta (PANSS),MEPE rs3749575 allele A,−8.95 PANSS
same,Beta (PANSS),MTIF3 rs12585587 allele A,−4.37 PANSS
same,Beta (PANSS),NAB1 rs2293765 allele A,−4.60 PANSS
same,Beta (PANSS),NELL1 rs4244549 allele C,−4.96 PANSS
same,Beta (PANSS),NRXN1 rs11885824 allele A,−5.21 PANSS
same,Beta (PANSS),NTRK2 rs1490403 allele A,−3.10 PANSS
same,Beta (PANSS),NTRK2 rs1490407 allele G,−3.00 PANSS
same,Beta (PANSS),NTRK2 rs4142909 allele C,−3.81 PANSS
same,Beta (PANSS),NTSR2 rs7602721 allele C,−4.08 PANSS
same,Beta (PANSS),PARD3B rs17283257 allele A,−3.82 PANSS
same,Beta (PANSS),PCDH15 rs10825137 allele A,−4.89 PANSS
same,Beta (PANSS),PCDH17 rs7319102 allele A,−3.47 PANSS
same,Beta (PANSS),PCP4L1 rs6671288 allele C,−4.15 PANSS
same,Beta (PANSS),"PDGFD, DDI1 rs2279789 allele C",−4.42 PANSS
same,Beta (PANSS),PEBP4 rs13271643 allele C,−5.41 PANSS
same,Beta (PANSS),"PI4KA, SERPIND1 rs78656 allele C",−7.22 PANSS
same,Beta (PANSS),PKNOX2 rs1044314 allele G,−4.14 PANSS
same,Beta (PANSS),PKP4 rs11680160 allele A,−4.33 PANSS
same,Beta (PANSS),PRDM2 rs6429793 allele A,−3.13 PANSS
same,Beta (PANSS),PSD3 rs7016207 allele C,−6.20 PANSS
same,Beta (PANSS),PTPRT rs6030084 allele A,−2.96 PANSS
same,Beta (PANSS),RASGEF1C rs2278661 allele C,−3.04 PANSS
same,Beta (PANSS),RBFOX1 rs7194775 allele C,−4.37 PANSS
same,Beta (PANSS),RIMS1 rs9446639 allele C,−3.56 PANSS
same,Beta (PANSS),RNF144A rs7605141 allele C,−4.00 PANSS
same,Beta (PANSS),ROBO2 rs4343667 allele C,−4.96 PANSS
same,Beta (PANSS),RORA rs12910376 allele C,−3.38 PANSS
same,Beta (PANSS),SCN3A rs10048748 allele C,−5.44 PANSS
same,Beta (PANSS),SEC16B rs16852158 allele C,−6.45 PANSS
same,Beta (PANSS),SGCZ rs10503525 allele C,−3.05 PANSS
same,Beta (PANSS),SGCZ rs13278000 allele A,−2.91 PANSS
same,Beta (PANSS),SLC6A5 rs1443547 allele A,−3.31 PANSS
same,Beta (PANSS),SLC16A4 rs12126959 allele A,−4.16 PANSS
same,Beta (PANSS),SLC16A9 rs16913940 allele A,−6.05 PANSS
same,Beta (PANSS),SLC35F3 rs12759054 allele C,−3.34 PANSS
same,Beta (PANSS),SPOCK1 rs1051854 allele G,−6.02 PANSS
same,Beta (PANSS),WDR90 rs1057835 allele A,−3.10 PANSS
same,Beta (PANSS),ZNF169 rs9409514 allele C,−3.04 PANSS
